According to PubChem BioAssay (NCI):
Several values for one entry are separate records, joined by “and”; a condition that tells them apart may be missing. Identical values can stand only once.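 Five concentrations, 48 hours, 96-well plates. GI50 marks 50% less growth. At the TGI there is no net growth.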

What was measured:
Experiment in all cases: NCI-60 cell line screen, 48 h
[1] = system: MCF7 breast
[2] = system: MDA-MB-435
[3] = system: DU-145 prostate
[4] = system: NCI/ADR-RES ovarian
[5] = system: DMS 114 small cell lung
[6] = system: KM20L2 colon
[7] = system: M19-MEL melanoma
[8] = system: SNB-78 CNS
[9] = system: DMS 273 small cell lung

SMILES | GI50 [1] | TGI [1] | GI50 [2] | TGI [2] | GI50 [3] | TGI [3] | GI50 [4] | TGI [4] | TGI [5] | TGI [6] | TGI [7] | TGI [8] | TGI [9] | GI50 [6] | GI50 [9] | GI50 [8]
Cc1ncc(C(=O)Nc2ccc(CN3CCN(C)CC3)c(C(F)(F)F)c2)cc1C#Cc1cnc(NC2CC2)c2ncccc12 | 0.605 µM | 1.18 µM | 0.513 µM | 0.963 µM | 0.65 µM | 1.22 µM | 2.32 µM | 5.28 µM | – | – | – | – | – | – | – | –
CCN(CC)CCNC(=O)c1c(C)[nH]c(/C=C2\C(=O)Nc3ccc(F)cc32)c1C | 1.93 µM and 2.23 µM and 2.05 µM | > 10 µM and 4.88 µM and 11.9 µM | 2.8 µM and 1.63 µM and 1.78 µM | > 10 µM and 5.1 µM and 8.49 µM | 3.73 µM and 2.83 µM and 2.19 µM | > 10 µM and 20 µM and 15.5 µM | > 10 µM and 4.48 µM and 5.31 µM | > 10 µM and 13.4 µM and 17.9 µM | – | – | – | – | – | – | – | –
CC(C)c1ccccc1NC(=O)/C(Cl)=C1/Sc2ccccc2NC1=O | – | – | – | – | – | – | – | – | 53.4 µM | 59.7 µM | > 100 µM | > 100 µM | – | – | – | –
O=S1(=O)NCCCN1CCNc1nccc(-c2c(-c3cccc(O)c3)nc3sccn23)n1 | 29.5 µM | > 100 µM | 0.563 µM | > 100 µM | 15.9 µM | > 100 µM | > 100 µM | > 100 µM | – | – | – | – | – | – | – | –
C=C1CC2(OC1=O)C(=O)N(CCCN1C(=O)C3(CC(=C)C(=O)O3)c3ccccc31)c1ccccc12 (centres undefined) | 1.4 µM | 4.45 µM | 1.84 µM | 4.2 µM | 1.73 µM | 3.52 µM | 2.52 µM | 9.44 µM | – | – | – | – | – | – | – | –
CCCCCCCCCCCC[n+]1ccccc1 (tested in a mixture with another compound) | 1.04 µM | 5.5 µM | 0.678 µM | 2.47 µM | 1.5 µM | 9.88 µM | 14.4 µM | 52.2 µM | – | – | – | – | – | – | – | –
C=CCSc1nc2ccccc2c(=O)n1Cc1ccco1 | – | > 100 µM | – | > 100 µM | – | > 100 µM | – | > 100 µM | – | – | – | – | – | – | – | –
CCCCCCCCCCN=C(c1ccc(N(C)C)cc1)c1ccc(N(C)C)cc1 | 0.356 µM | > 100 µM | 0.0726 µM | 0.332 µM | 2.42 µM | > 83 µM | 0.406 µM | 42.4 µM | – | – | – | – | – | – | – | –
Cc1cc(Nc2nc(SCc3ccc(C(=O)Nc4ccc(F)cc4N)cc3)nn3cccc23)n[nH]1 | 0.0518 µM | 29.3 µM | – | – | 0.461 µM | > 100 µM | 1.98 µM | > 100 µM | – | – | – | – | – | – | – | –
CC1CCCc2c1nn(C(=O)/C=C(\N)c1ccccc1)c2N (centres undefined) | 7.26 µM | > 100 µM | 10.7 µM | 26.5 µM | 14.5 µM | > 100 µM | 6.03 µM | 39.4 µM | – | – | – | – | – | – | – | –
CCCCCCCCCCCCCCCCCCNC(=O)[C@H]1CSC(c2cccs2)N1 (some centres undefined) | 0.764 µM | 1.58 µM | 0.77 µM | 1.53 µM | 2.91 µM | > 50 µM | 1.06 µM | 2.31 µM | – | – | – | – | – | – | – | –
CCC(=C(c1ccc(OCCCN(C)C)cc1)c1ccc(OCCCN(C)C)cc1)c1ccc(Cl)cc1 | 0.216 µM | 0.524 µM | 0.292 µM | 0.556 µM | 1.01 µM | 3.16 µM | 1.95 µM | 4.14 µM | – | – | – | – | – | – | – | –
CN(C)Cc1c[nH]c2c(NCCN)c3c(c(NCCN)c12)C(=O)c1ccccc1C3=O | 19 µM | 94.1 µM | 1.88 µM | 5.2 µM | 5.55 µM | 18.7 µM | 21.8 µM | > 66.1 µM | – | – | – | – | – | – | – | –
OC(CN1CC1)C(O)CN1CC1 (centres undefined) | – | – | > 50 µg/mL | > 50 µg/mL | > 50 µg/mL | > 50 µg/mL | > 50 µg/mL | > 50 µg/mL | – | – | – | – | – | – | – | –
Cn1c2ccccc2c2c(=O)c3ccccc3[nH]c21 | 30.3 µM | > 100 µM | 70.2 µM | > 100 µM | 33.2 µM | > 100 µM | 43.7 µM | > 100 µM | – | – | – | – | – | – | – | –
COc1ccccc1/C=C/C(=O)/C=C/c1ccccc1O | 0.195 µM | 1.73 µM | 1.51 µM | 3.81 µM | 1.02 µM | 2.63 µM | 2.86 µM | 15 µM | – | – | – | – | – | – | – | –
CNC(=O)c1cc2c(Oc3ccc(NC(=O)C4(C(=O)Nc5ccc(F)cc5)CC4)cc3)ccnc2cc1OC | 2.55 µM | > 100 µM | 2.28 µM | 6.64 µM | 4.06 µM | > 100 µM | 3.56 µM | > 100 µM | – | – | – | – | – | – | – | –
CCN(CC)CCNC(=O)c1cn2ncnc(Oc3ccc(NC(=O)Nc4ccc(Cl)c(C(F)(F)F)c4)c(F)c3)c2c1C | 1.4 µM | 3.15 µM | 1.57 µM | 3.02 µM | 1.72 µM | 3.12 µM | 1.95 µM | 3.82 µM | – | – | – | – | – | – | – | –
NC(=O)/C=C/C(=O)O | – | – | – | – | – | – | – | – | > 5000 µM | – | > 5000 µM | > 5000 µM | > 5000 µM | – | – | –
O=c1c2c3c(sc2n2c(-c4cc(-c5ccccc5)nn4-c4ccccc4)nnc2n1Cc1ccccc1)CCCC3 | > 100 µM | > 100 µM | > 100 µM | > 100 µM | > 100 µM | > 100 µM | > 100 µM | > 100 µM | – | – | – | – | – | – | – | –
C=CCOC(=O)CC[N+]1=CCC(c2ccccc2)(c2ccccc2)O1 | – | > 100 µM | – | > 100 µM | – | > 100 µM | – | – | – | – | – | – | – | – | – | –
CC(=O)[O-].CC(=O)[O-].CC(=O)[O-].CC(=O)[O-].[Mo+2].[Mo+2] | – | – | – | – | – | – | – | – | – | > 100 µM | – | > 100 µM | > 100 µM | > 100 µM | > 100 µM | > 100 µM
CCSc1nc(N)c2cn[nH]c2n1 | 23 µM | 60.3 µM | 30.8 µM | > 100 µM | 46.2 µM | > 100 µM | 28.4 µM | 85.6 µM | – | – | – | – | – | – | – | –
Cc1nc(Nc2n[nH]c3c2CN(C(=O)N[C@H](CN(C)C)c2ccccc2)C3(C)C)c2sccc2n1 | 0.00523 µM and < 0.01 µM | > 5.5 µM and 6.46 µM | 0.0272 µM and 0.0275 µM | > 3.52 µM and 3.35 µM | 0.156 µM and 0.317 µM | > 10 µM and 15.9 µM | > 3.65 µM and 17.5 µM | > 100 µM | – | – | – | – | – | – | – | –
